Read-outs that look alike come from different tables or passages of the source.
Tests used:
[1] = target: T1, recombinant human IL17a (binding to its receptor IL17R) (Homo sapiens, UniProt Q16552); test: IL-17 competition ELISA I (IL17a coated, IL17R/Fc binding)
T1 construct: purchased R&D Systems 317-ILB (IL17a); 177-IR (IL17R/Fc)
T1 sequence (Q16552 20-155 limits assumed): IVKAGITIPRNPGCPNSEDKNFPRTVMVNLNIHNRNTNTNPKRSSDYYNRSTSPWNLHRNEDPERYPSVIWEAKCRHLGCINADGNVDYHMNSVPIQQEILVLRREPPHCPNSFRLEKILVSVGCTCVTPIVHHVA
How it was run: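 Plates coated with 20 nM recombinant human IL17a received compound dilutions and 12 nM IL17R/Fc (final) for 30 min at room temperature. Bound receptor was detected with HRP anti-human Fc and TMB, read at 450 nm. IC50 came from a 4-parameter logistic fit between no-competitor and blank controls.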

[2] = test system: IL-17A induced secretion of IL-6 in primary human RASF cells; test: Inhibition of IL17A induced secretion of IL6 in human rheumatoid arthritis synovial fibroblast (RASF) cells; format: cell-based
Protocol: This assay was used to determine the extent of inhibition of IL-17A induced secretion of IL-6 in primary human rheumatoid synovial fibroblast (RASF) cells by compounds of the invention. IL-17A is known to stimulate IL-6 production in RASF cells.
Low passage (passage 2-8) Primary human RASF cells (Asterand) were maintained in maintenance medium. Cells were detached from flasks by tryptic digestion and the cell density of the suspension determined. To each well of a 96 well culture plate was added 100 μL of seeding medium containing 50,000 cells/mL and the plate incubated overnight in a humidified 37° C., 5% CO2 incubator. The medium was replaced with fresh assay medium and cells were incubated for additional 5 hours in a humidified 37° C., 5% CO2 incubator prior to stimulation with recombinant human IL-17A (“rhIL-17A”). Prior to addition to cells, rhIL-17A (30 ng/mL) in assay medium was incubated with either DMSO alone, compounds, or anti-IL17 receptor antibody (3 μg/mL) for 1 hour at 37° C. The final concentration of DMSO in all samples was 0.25%. The final concentration of compounds varied from 0.03 μM to 25 μM.
Immediately before stimulation, cells were washed once with fresh assay medium. Then, 100 μL of the test samples was added in triplicate wells and the plates incubated for 20 hours in a humidified 37° C., 5% CO2 incubator. The assay medium from each well was collected and the IL-6 concentration in cell culture supernatants was determined by ELISA either immediately or after storage at −20° C.
A water-soluble tetrazolium salt (WST1) viability assay was immediately performed on the cells after the conditioned medium was collected using a WST1 reagent purchased from Roche. The concentration of IL-6 obtained from ELISA was normalized by the WST1 data.

[3] = target: T2, biotinylated human IL-17 (binding to IL17R/Fc) (Homo sapiens, UniProt Q16552); test: IL-17 competition ELISA II (captured IL17R/Fc, biotinylated IL-17)
T2 construct: purchased R&D Systems 317-ILB (IL-17, biotinylated); 177-IR (IL17R/Fc)
T2 sequence (Q16552 20-155 limits assumed): T1 sequence (Q16552 20-155 limits assumed)
How it was run: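 Competition read-out: absorbance at 450 nm after streptavidin-HRP/TMB detection, fitted to a 4-parameter logistic model bounded by no-competitor and blank wells to give IC50. Compound was serially diluted 5-fold from 1 μM alongside 20 nM (stock) biotinylated IL-17 on IL17R/Fc (10 nM) captured via goat anti-human IgG, 30 min at room temperature.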

Structure (SMILES)	IC50 [1] [nM]	IC50 [3] [nM]	IC50 ([2]; Homo sapiens, Fibroblast) [nM]	IC50 [2] [nM]
CC1(C)CC(=O)NCCCCCNC(=O)CNC(=O)[C@@H](Cc2ccc(NC(=O)[C@@H](NC(=O)c3cccnc3)C3CCCCC3)cc2)NC(=O)C1 [Compound 254]	1000 to 10000		> 10000	
O=C1CC2(CCCC2)CC(=O)N[C@H](Cc2ccc(NC(=O)[C@H](Cc3ccccc3Cl)NC(=O)Cc3ccc(O)cc3)cc2)C(=O)NCCCCCCCCN1 [Compound 263]	< 100		1000 to 10000	
O=C1CNC(=O)[C@@H](Cc2ccc(NC(=O)[C@H](Cc3ccccc3Cl)NC(=O)CC3CCCCC3)cc2)NC(=O)CC2(CCCC2)CC(=O)NCCCCCN1 [Compound 236]	< 100		1000 to 10000	
CC1(C)CC(=O)NCCCCCNC(=O)CNC(=O)[C@@H](Cc2ccc(NC(=O)[C@@H](NC(=O)Cc3ccccc3)C3CCCCC3)cc2)NC(=O)C1 [Compound 251]	100 to 1000		1000 to 10000	
CN1CCNC(=O)CNC(=O)[C@@H](Cc2ccc(NC(=O)[C@H](Cc3ccccc3Cl)NC(=O)Cc3ccc(O)cc3)cc2)NC(=O)CC2(CCCC2)CC(=O)NCC1 [Compound 260]	< 100		1000 to 10000	
COC(=O)[C@@H]1CCCCNC(=O)CNC(=O)[C@@H](Cc2ccc(NC(=O)[C@@H](NC(=O)c3cccnc3)C3CCCCC3)cc2)NC(=O)CC2(CCCC2)CC(=O)N1 [Compound 352]	1000 to 10000		> 10000	
O=C1CC2(CCCC2)CC(=O)N[C@H](Cc2ccc(NC(=O)[C@H](Cc3ccccc3Cl)NC(=O)Oc3ccccc3)cc2)C(=O)NCCOCCOCCN1 [Compound 571]		< 100	1000 to 10000	
O=C1CC2(CCCC2)CC(=O)N[C@H](Cc2ccc(NC(=O)[C@H](Cc3ccccc3Cl)NC(=O)Cc3ccccc3)cc2)C(=O)N[C@H](Cc2ccccc2)C(=O)NCCCCCN1 [Compound 261]	< 100		1000 to 10000	
CC1(C)CC(=O)NCCCCCNC(=O)CNC(=O)[C@@H](Cc2ccc(NC(=O)[C@@H](NC(=O)Cc3ccc(O)cc3)C3CCCCC3)cc2)NC(=O)C1 [Compound 253]	100 to 1000		1000 to 10000	
C[C@H]1NC(=O)[C@@H](Cc2ccc(NC(=O)[C@H](Cc3ccccc3Cl)NC(=O)[C@H](O)c3ccccc3)cc2)NC(=O)CC2(CCCC2)CC(=O)NCCCCCNC1=O [Compound 551]		< 100	1000 to 10000	
C[C@H]1NC(=O)[C@@H](Cc2ccc(NC(=O)[C@H](Cc3ccccc3Cl)NC(=O)Cc3ccc(N(C)C)cc3)cc2)NC(=O)CC2(CCCC2)CC(=O)N(C)CCN(C)CCN(C)C1=O [Compound 562]		< 100	1000 to 10000	
O=C1CC2(CCCC2)CC(=O)N[C@H](Cc2ccc(NC(=O)[C@H](Cc3ccccc3Cl)NC(=O)Cc3ccc(F)cc3)cc2)C(=O)NCCOCCOCCN1 [Compound 490]		< 100	1000 to 10000	
C[C@H]1NC(=O)[C@@H](Cc2ccc(NC(=O)[C@H](Cc3ccccc3Cl)NC(=O)Cc3ccc(F)cc3)cc2)NC(=O)CC2(CCCC2)CC(=O)NCCCCCN(C)C1=O [Compound 470]		< 100	100 to 1000	
O=C1CC2(CCCC2)CC(=O)NC(Cc2ccc(NC(=O)C(Cc3ccccc3Cl)NC(=O)c3cccnc3)cc2)C(=O)NCCOCCOCCN1 (centres unmarked) [Compound 406]		< 100		1000 to 10000
CN1CCCCCN(C)C(=O)[C@@H](Cc2ccncc2)NC(=O)[C@@H](Cc2ccc(NC(=O)[C@H](Cc3ccccc3Cl)NC(=O)C(F)(F)c3ccccc3)cc2)NC(=O)CC2(CCCC2)CC1=O [Compound 627]		< 100	100 to 1000	
C[C@H]1NC(=O)[C@@H](Cc2ccc(NC(=O)[C@H](Cc3ccccc3Cl)NC(=O)C(F)(F)c3ccc(F)cc3)cc2)NC(=O)CC2(CCCC2)CC(=O)NCCCCCNC1=O [Compound 560]		< 100	< 100	
Cc1ccccc1CC(=O)N[C@@H](Cc1ccccc1Cl)C(=O)Nc1ccc(C[C@H]2NC(=O)CC3(CCCC3)CC(=O)NCCOCCOCCNC2=O)cc1 [Compound 495]		< 100	1000 to 10000	
C[C@H]1NC(=O)[C@@H](Cc2ccc(NC(=O)[C@H](Cc3ccccc3Cl)NC(=O)C(F)(F)c3ccccc3)cc2)NC(=O)CC2(CCC2)CC(=O)NCCCCCNC1=O [Compound 536]		< 100	100 to 1000	
C[C@H]1NC(=O)[C@@H](Cc2ccc(NC(=O)[C@H](Cc3ccccc3Cl)NC(=O)Cc3ccccc3)cc2)NC(=O)CC2(CCCC2)CC(=O)NCCNCCNC1=O [Compound 443]		< 100	100 to 1000	
CN1CCCCCNC(=O)[C@@H](CCC(=O)O)NC(=O)[C@@H](Cc2ccc(NC(=O)[C@H](Cc3ccccc3Cl)NC(=O)Cc3cccc(O)c3)cc2)NC(=O)CC2(CCCC2)CC1=O [Compound 473]		< 100	100 to 1000	

The next lines start with results.

IC50 [1] [nM]	IC50 [3] [nM]	Structure (SMILES)	IC50 ([2]; Homo sapiens, Fibroblast) [nM]	IC50 [2] [nM]
100 to 1000	< 100	C[C@H]1NC(=O)[C@@H](Cc2ccc(NC(=O)[C@@H](NC(=O)c3cccnc3)C3CCCCC3)cc2)NC(=O)CC2(CCCC2)CC(=O)NCCCCCNC1=O [Compound 361]	1000 to 10000	
	< 100	C[C@H]1NC(=O)[C@@H](Cc2ccc(NC(=O)[C@H](Cc3ccccc3Cl)NC(=O)Cc3ccc(F)cc3)cc2)NC(=O)CC2(CCCC2)CC(=O)N(C)CCCCCN(C)C1=O [Compound 488]	1000 to 10000	
	< 100	C[C@H]1NC(=O)[C@@H](Cc2ccc(NC(=O)[C@H](Cc3ccccc3Cl)NC(=O)C(F)(F)c3ccccc3)cc2)NC(=O)CC2(CCCC2)CC(=O)NCCCCCNC1=O [Compound 434]	100 to 1000	
	< 100	C[C@H]1NC(=O)[C@@H](Cc2ccc(NC(=O)[C@H](Cc3ccccc3Cl)NC(=O)Cc3ccc(F)cc3)cc2)NC(=O)CC2(CCCC2)NC(=O)CCNC(=O)CCNC1=O [Compound 593]	100 to 1000	
	< 100	CN1CCOCCOCCNC(=O)[C@@H](Cc2ccc(NC(=O)[C@H](Cc3ccccc3Cl)NC(=O)Cc3ccc(N(C)C)cc3)cc2)NC(=O)CC2(CCCC2)CC1=O [Compound 582]	1000 to 10000	
	< 100	CN1CCCCCN(C)C(=O)[C@@H](CCC(N)=O)NC(=O)[C@@H](Cc2ccc(NC(=O)[C@H](Cc3ccccc3Cl)NC(=O)C(F)(F)c3ccccc3)cc2)NC(=O)CC2(CCCC2)CC1=O [Compound 645]	100 to 1000	
	< 100	O=C1CC2(CCCC2)CC(=O)N[C@H](Cc2ccc(NC(=O)[C@H](Cc3ccccc3Cl)NC(=O)Cc3ccc(F)cc3)cc2)C(=O)N[C@H](CC2CCCCC2)C(=O)NCCCCCN1 [Compound 499]	100 to 1000	
	< 100	Cc1ccccc1C[C@H](NC(=O)Cc1ccc(F)cc1)C(=O)Nc1ccc(C[C@H]2NC(=O)CC3(CCCC3)CC(=O)NCCCCCNC(=O)[C@@H](CCC(N)=O)NC2=O)cc1 [Compound 515]	< 100	
	< 100	O=C1CNC(=O)[C@@H](Cc2ccc(NC(=O)[C@H](Cc3ccc(F)cc3Cl)NC(=O)Cc3ccccc3)cc2)NC(=O)CC2(CCCC2)CC(=O)NCCCCCN1 [Compound 386]	1000 to 10000	
	< 100	C[C@H]1NC(=O)[C@@H](Cc2ccc(NC(=O)[C@H](Cc3ccccc3Cl)Nc3nc4ccccc4o3)cc2)NC(=O)CC2(CCCC2)CC(=O)NCCCCCNC1=O [Compound 555]	< 100	
	< 100	CN1CCCCCN(C)C(=O)[C@@H](CCC(N)=O)NC(=O)[C@@H](Cc2ccc(NC(=O)[C@@H](NC(=O)Cc3cccc(O)c3)C3CCCCC3)cc2)NC(=O)CC2(CCCC2)CC1=O [Compound 646]	1000 to 10000	
	< 100	O=C1CC2(CCCC2)CC(=O)N[C@H](Cc2ccc(NC(=O)[C@H](Cc3ccccc3Cl)NC(=O)Cc3ccc(F)cc3)cc2)C(=O)N[C@H](C2CCCCC2)C(=O)NCCCCCN1 [Compound 425]	100 to 1000	
	< 100	O=C1CNC(=O)[C@@H](Cc2ccc(NC(=O)[C@H](Cc3ccc(F)cc3Cl)NC(=O)Cc3ccc(F)cc3)cc2)NC(=O)CC2(CCCC2)CC(=O)NCCCCCN1 [Compound 388]	< 100	
	< 100	O=C1CC2(CCCC2)CC(=O)N[C@H](Cc2ccc(NC(=O)[C@H](Cc3ccccc3Cl)NC(=O)c3cccnc3)cc2)C(=O)NCCCCCCCCN1 [Compound 442]	1000 to 10000	
	< 100	CC1NC(=O)C(Cc2ccc(NC(=O)C(Cc3ccccc3Cl)NC(=O)C(F)(F)c3ccccc3)cc2)NC(=O)CC2(CCCC2)CC(=O)N(C)CCCCCN(C)C1=O (centres unmarked) [Compound 566]		100 to 1000

From US9284283B2, “Macrocyclic compounds for modulating IL-17” (ENSEMBLE THERAPEUTICS CORPORATION, priority 2012, dated 2016)
